Assay results: patent EP4273147A1, “SUBSTITUTED SPIROLACTAMS, SALTS THEREOF AND THEIR USE AS HERBICIDALLY ACTIVE SUBSTANCES” (Bayer Aktiengesellschaft, priority 2022, dated 2023)

Columns and labels:
[1] = system: ECHCG; experiment: Herbicidal pre-emergence action, section C (Table C6); format: in vivo, Echinochloa crus-galli; details: application rate 320 g/ha; visual grading after ca. 3 weeks
[2] = system: ECHCG; experiment: Herbicidal post-emergence action (Table B3); format: in vivo, Echinochloa crus-galli; details: rated visually after about 3 weeks
Outline: (§1)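 Visual rating of activity versus untreated plants about 3 weeks after treatment: 0% means no difference from controls, 100% means complete kill. Test weeds were raised from seed in sandy loam under controlled greenhouse conditions and sprayed at the one-leaf stage.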

[3] = system: ECHCG; experiment: Herbicidal post-emergence action, section E (Table E5); format: in vivo, Echinochloa crus-galli; details: application rate 320 g/ha; assessed visually after ca. 3 weeks
From the text: (§2) 2 to 3 weeks after sowing, the test plants were sprayed in the single-leaf stage.

[4] = system: VIOTR; experiment: Herbicidal pre-emergence action, section C (Table C12); format: in vivo, Viola tricolor; details: application rate 320 g/ha; visual grading after ca. 3 weeks
[5] = system: ECHCG; experiment: Herbicidal pre-emergence action (Table A2); format: in vivo, Echinochloa crus-galli; details: visual grading after ca. 3 weeks
Outline: (§3)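 For this pre-emergence setup, sandy loam pots received seeds of one monocot and one dicot weed species each. The seeds were then covered with soil.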

[6] = system: BRSNW; experiment: Post-emergence effects on crop plants (Table F5); format: in vivo, Brassica napus; details: application rate 320 g/ha, crop plant BRSNW
From the text: as §2

[7] = system: LOLRI; experiment: Herbicidal pre-emergence action (Table A3); format: in vivo, Lolium rigidum; details: visual grading after ca. 3 weeks
Outline: as §3

[8] = system: BRSNW; experiment: Pre-emergence effects on crop plants (Table D5); format: in vivo, Brassica napus; details: crop plant; application rate 320 g/ha; visual grading after ca. 3 weeks
From the text: (§5) Seeds of mono- and dicotyledonous weed plants and crop plants were sown, in plastic or organic planting pots, in sandy loam and covered with soil. The compounds according to the invention, formulated in the form of wettable powders (WP) or as emulsifiable concentrates (EC), were applied to the surface of the covering soil as aqueous suspension or emulsion, with the addition of 0.5% of an additive, at an application rate of 600 1 of water/ha (converted).
(§6) Following treatment, the pots were placed in a greenhouse and kept under optimum growth conditions for the test plants.

[9] = system: ZEAMX; experiment: Post-emergence effects on crop plants (Table F1); format: in vivo, Zea mays; details: application rate 320 g/ha, crop plant ZEAMX
From the text: as §2

[10] = system: SETVI; experiment: Herbicidal pre-emergence action, section C (Table C10); format: in vivo, Setaria viridis; details: application rate 80 g/ha; visual grading after ca. 3 weeks
[11] = system: ALOMY; experiment: Herbicidal pre-emergence action, section C (Table C2); format: in vivo, Alopecurus myosuroides; details: application rate 320 g/ha; visual grading after ca. 3 weeks
[12] = system: TRZAS; experiment: Pre-emergence effects on crop plants (Table D2); format: in vivo, Triticum aestivum; details: crop plant; application rate 80 g/ha; visual grading after ca. 3 weeks
[13] = system: ORYZA; experiment: Post-emergence effects on crop plants (Table F3); format: in vivo, Oryza sativa; details: application rate 320 g/ha, crop plant ORYZA
From the text: as §2

[14] = system: SETVI; experiment: Herbicidal pre-emergence action (Table A5); format: in vivo, Setaria viridis; details: visual grading after ca. 3 weeks
Outline: as §3

[15] = system: POAAN; experiment: Herbicidal post-emergence action (Table B7); format: in vivo, Poa annua
Outline: as §1

[16] = system: VERPE; experiment: Herbicidal post-emergence action (Table B10); format: in vivo, Veronica persica
Outline: as §1

[17] = system: GLXMA; experiment: Pre-emergence effects on crop plants (Table D4); format: in vivo, Glycine max; details: crop plant; application rate 80 g/ha; visual grading after ca. 3 weeks
From the text: as §5, §6

[18] = system: AMARE; experiment: Herbicidal pre-emergence action, section C (Table C3); format: in vivo, Amaranthus retroflexus; details: application rate 320 g/ha; visual grading after ca. 3 weeks
[19] = system: ZEAMX; experiment: Pre-emergence effects on crop plants (Table D1); format: in vivo, Zea mays; details: crop plant; application rate 80 g/ha; visual grading after ca. 3 weeks
[20] = system: TRZAS; experiment: Post-emergence effects on crop plants (Table F2); format: in vivo, Triticum aestivum; details: application rate 320 g/ha, crop plant TRZAS
From the text: as §2

[21] = system: GLXMA; experiment: Post-emergence effects on crop plants (Table F4); format: in vivo, Glycine max; details: application rate 320 g/ha, crop plant GLXMA
From the text: as §2

[22] = system: DIGSA; experiment: Herbicidal pre-emergence action, section C (Table C5); format: in vivo, Digitaria sanguinalis; details: application rate 320 g/ha; visual grading after ca. 3 weeks
[23] = system: MATIN; experiment: Herbicidal pre-emergence action, section C (Table C8); format: in vivo, Matricaria inodora; details: application rate 320 g/ha; visual grading after ca. 3 weeks
[24] = system: ABUTH; experiment: Herbicidal pre-emergence action, section C (Table C1); format: in vivo, Abutilon theophrasti; details: application rate 320 g/ha; visual grading after ca. 3 weeks
[25] = system: VERPE; experiment: Herbicidal pre-emergence action, section C (Table C11); format: in vivo, Veronica persica; details: application rate 320 g/ha; visual grading after ca. 3 weeks
[26] = system: KCHSC; experiment: Herbicidal pre-emergence action (Table A10); format: in vivo, Kochia scoparia; details: application rate 320 g/ha; visual grading after ca. 3 weeks
Outline: as §3

[27] = system: ABUTH; experiment: Herbicidal pre-emergence action (Table A1); format: in vivo, Abutilon theophrasti; details: application rate 1280 g/ha; visual grading after ca. 3 weeks vs untreated controls (100% = plants have died off, 0% = as control plants)
Outline: as §3

[28] = system: POAAN; experiment: Herbicidal pre-emergence action (Table A7); format: in vivo, Poa annua; details: Poa annua, pre-emergence, 504 h; application rate 320 g/ha; visual grading after ca. 3 weeks; read-out: pre-emergence activity against POAAN
Outline: as §3

[29] = system: MATIN; experiment: Herbicidal pre-emergence action (Table A4); format: in vivo, Matricaria inodora; details: application rate 1280 g/ha; visual grading after ca. 3 weeks
Outline: as §3

[30] = system: ABUTH; experiment: Herbicidal post-emergence action (Table B1); format: in vivo, Abutilon theophrasti; details: application rate 320 g/ha; treated at one-leaf stage; rated visually after about 3 weeks vs untreated controls (100% = plants have died, 0% = like control plants)
Outline: as §1

[31] = system: SETVI; experiment: Herbicidal post-emergence action (Table B8); format: in vivo, Setaria viridis; details: application rate 320 g/ha
Outline: as §1

[32] = system: ALOMY; experiment: Herbicidal post-emergence action (Table B2); format: in vivo, Alopecurus myosuroides; details: application rate 1280 g/ha; rated visually after about 3 weeks
Outline: as §1

[33] = system: VERPE; experiment: Herbicidal pre-emergence action (Table A11); format: in vivo, Veronica persica; details: application rate 1280 g/ha; visual grading after ca. 3 weeks
Outline: as §3

[34] = system: STEME; experiment: Herbicidal pre-emergence action (Table A6); format: in vivo, Stellaria media; details: application rate 320 g/ha; visual grading after ca. 3 weeks
Outline: as §3

[35] = system: KCHSC; experiment: Herbicidal post-emergence action (Table B4); format: in vivo, Kochia scoparia; details: application rate 1280 g/ha; rated visually after about 3 weeks
Protocol: (§4) Seeds of mono- and dicotyledonous weed plants were placed in plastic pots in sandy loam soil (doubly sown with in each case one species of mono- or dicotyledonous weed plants per pot), covered with soil and cultivated in a greenhouse under controlled growth conditions. 2 to 3 weeks after sowing, the test plants were treated at the one-leaf stage. […] After the test plants had been kept in the greenhouse under optimum growth conditions for about 3 weeks, the activity of the preparations was rated visually in comparison to untreated controls. For example, 100% activity = the plants have died, 0% activity = like control plants.

[36] = system: DIGSA; experiment: Herbicidal post-emergence action (Table B12); format: in vivo, Digitaria sanguinalis; details: application rate 320 g/ha
Protocol: as §4

[37] = system: STEME; experiment: Herbicidal post-emergence action (Table B9); format: in vivo, Stellaria media; details: application rate 320 g/ha
Protocol: as §4

[38] = system: DIGSA; experiment: Herbicidal pre-emergence action (Table A12); format: in vivo, Digitaria sanguinalis; details: application rate 320 g/ha; visual grading after ca. 3 weeks
Outline: as §3

[39] = system: AMARE; experiment: Herbicidal pre-emergence action (Table A8); format: in vivo, Amaranthus retroflexus; details: application rate 320 g/ha; visual grading after ca. 3 weeks vs untreated controls (100% = plants have died off, 0% = as control plants)
Outline: as §3

[40] = system: AMARE; experiment: Herbicidal post-emergence action (Table B11); format: in vivo, Amaranthus retroflexus; details: application rate 1280 g/ha
Outline: as §1

[41] = system: LOLRI; experiment: Herbicidal post-emergence action (Table B5); format: in vivo, Lolium rigidum; details: application rate 320 g/ha; rated visually after about 3 weeks
Outline: as §1

SMILES: O=C1N(Cc2ccccc2)CCCC12CCCN(Cc1ccccc1Cl)C2=O (racemic) [I-066]
- pre-emergence activity against ECHCG [1]: 80%
- post-emergence activity against ECHCG ([2]; application rate 1280 g/ha): 90%
- post-emergence activity against ECHCG [3]: 80%
- pre-emergence activity against VIOTR [4]: 80%
- pre-emergence activity against ECHCG ([5]; application rate 320 g/ha): 100%
- post-emergence activity against BRSNW [6]: 0%
- pre-emergence activity against LOLRI ([7]; application rate 320 g/ha): 100%
- pre-emergence activity against BRSNW [8]: 0%
- post-emergence activity against ZEAMX [9]: 0%
- pre-emergence activity against SETVI [10]: 100%
- pre-emergence activity against ALOMY [11]: 90%
- pre-emergence activity against TRZAS [12]: 0%
- post-emergence activity against ORYZA [13]: 0%
- pre-emergence activity against SETVI ([14]; application rate 1280 g/ha): 100%
- post-emergence activity against POAAN ([15]; application rate 1280 g/ha): 90%
- post-emergence activity against VERPE ([16]; application rate 1280 g/ha): 90%
- pre-emergence activity against GLXMA [17]: 0%
- pre-emergence activity against AMARE [18]: 90%
- pre-emergence activity against ZEAMX [19]: 10%
- post-emergence activity against TRZAS [20]: 0%

SMILES: O=C1N(Cc2c(F)cccc2F)CCCC12CCCN(Cc1c(F)cccc1F)C2=O (single isomer, unassigned; (+)) [I-083, (+)-2,8-bis[(2,6-difluorophenyl)methyl]-2,8-diazaspiro[5.5]undecane-1,7-dione]
- post-emergence activity against GLXMA [21]: 0%
- pre-emergence activity against VIOTR [4]: 100%
- post-emergence activity against BRSNW [6]: 0%
- post-emergence activity against ZEAMX [9]: 0%
- pre-emergence activity against DIGSA [22]: 90%
- pre-emergence activity against ALOMY [11]: 90%
- post-emergence activity against ORYZA [13]: 0%
- pre-emergence activity against MATIN [23]: 100%
- pre-emergence activity against ABUTH [24]: 100%
- pre-emergence activity against AMARE [18]: 100%
- post-emergence activity against TRZAS [20]: 10%
- pre-emergence activity against VERPE [25]: 100%

SMILES: O=C1N(Cc2cnc(Br)s2)CCCC12CCCN(Cc1cnc(Br)s1)C2=O (single isomer, unassigned; (+)) [I-205, (+)-2,8-bis[(2-bromo-1,3-thiazol-5-yl)methyl]-2,8-diazaspiro[5.5]undecane-1,7-dione]
- pre-emergence activity against KCHSC [26]: 100%
- pest or weed control at 320 g/ha ([2]; Echinochloa crus-galli, post-emergence, 504 h, application rate 320 g/ha, read-out: post-emergence activity against ECHCG): 90%
- pre-emergence activity against ABUTH [27]: 90%
- pre-emergence activity against ECHCG ([5]; application rate 1280 g/ha): 90%
- pest or weed control at 320 g/ha [28]: 100%
- pest or weed control at 1280 g/ha ([7]; Lolium rigidum, pre-emergence, 504 h, application rate 1280 g/ha, read-out: pre-emergence activity against LOLRI): 100%
- pre-emergence activity against MATIN [29]: 90%
- post-emergence activity against ABUTH [30]: 90%
- post-emergence activity against SETVI [31]: 90%
- post-emergence activity against ALOMY [32]: 90%
- pre-emergence activity against VERPE [33]: 100%
- pre-emergence activity against STEME [34]: 90%
- post-emergence activity against KCHSC [35]: 90%
- pre-emergence activity against SETVI ([14]; application rate 320 g/ha): 100%
- post-emergence activity against POAAN ([15]; application rate 320 g/ha): 90%
- post-emergence activity against DIGSA [36]: 90%
- post-emergence activity against VERPE ([16]; application rate 320 g/ha): 90%
- post-emergence activity against STEME [37]: 90%
- pre-emergence activity against DIGSA [38]: 90%
- pre-emergence activity against AMARE [39]: 90%
- post-emergence activity against AMARE [40]: 90%
- post-emergence activity against LOLRI [41]: 90%
